How the values were obtained:
Format in all cases: binding
53BP1 TTD = assay: Histone peptide microarray, 53BP1 TTD; conditions: 53BP1 TTD hits, average signal per peptide
Experimental: (§1) Peptide microarrays were fabricated using an Aushon 2470 microarrayer and used as described ([Cornett et al., 2017]) with the following modifications. Protein and antibody hybridization steps were performed in buffer containing 25 mM HEPES pH 7.5, 100 mM NaCl, 0.5% BSA (w/v), and 0.1% NP-40. Slides were washed 3 × 5 min in PBS supplemented with 0.1% Tween-20 between each hybridization step. Antibodies used were primary anti-GST (Sigma #7781, 1:2,000 dilution) and an AlexaFluor 647-labeled secondary antibody (Life Technologies A-21245, 1:5,000 dilution). […] Full lists of peptides queried by array analysis are in Supplementary Table S2.

[1] = system: Active Motif #39161, anti-H3K9me3; assay: Histone peptide microarray, Active Motif 39161; conditions: Active Motif 39161 (anti-H3K9me3) hits;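 also: normalized to the highest peptide average per subarray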
Experimental: as §1

[2] = system: Millipore #07-449, anti-H3K27me3; assay: Histone peptide microarray, Millipore 07-449; conditions: Millipore 07-449 (anti-H3K27me3) hits, average signal per peptide;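 also: normalized to the highest peptide average per subarray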
Experimental: as §1

[3] = system: Abcam #ab8895, anti-H3K4me1; assay: Histone peptide microarray, Abcam ab8895; conditions: Abcam ab8895 (anti-H3K4me1) hits, average signal per peptide;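 also: normalized to the highest peptide average per subarray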
Experimental: as §1

| Substance | Avg Signal (53BP1 TTD) | Avg Signal [1] | Avg Signal [2] | Avg Signal [3] |
| --- | --- | --- | --- | --- |
| (Biot)Peg-MPKDIQLARRIRGERA-OH [H3.1.1(120-135)] | 0.05797 | 0.000221 | 0.0002349 | – |
| ACitTK(Ac)QTARK(Ac)STGGK(Ac)APRK(Ac)QL-K(Biot)-NH2 [H3.1Cit2K4acK9acK14acK18ac] | 0.04568 | 0.003876 | – | – |
| AGGK(Ac)AGK(Ac)DSGK(Ac)AKTKAVSR-Peg-Biot [H2A.Z.1K4acK7acK11ac] | – | 0.0007875 | 0.00926 | 0.0004754 |
| AGGKAGKDSGKAKTKAVSR-Peg-Biot [H2A.Z.1 unmod (1-19)] | – | – | 0.001328 | – |
| AGGRAGRDSGRAKTKAVSR-Peg-Biot [H2A.Z.1K4RK7RK11R] | – | 0.02573 | 0.008119 | 0.03173 |
| ARTK(Ac)QTARK(Ac)STGGK(Ac)APRKQL-K(Biot)-NH2 [H3.1K4acK9acK14ac] | 0.1165 | – | – | – |
| ARTK(Ac)QTARK(Ac)STGGKAPRK(Ac)QL-K(Biot)-NH2 [H3.1K4acK9acK18ac] | 0.1542 | 0.011 | 0.0004417 | – |
| ARTK(Ac)QTARK(Ac)STGGKAPRKQL-K(Biot)-NH2 [Peptide H3.1K4acK9ac] | 0.05583 | – | – | – |
| ARTK(Ac)QTARK(Ac)pSTGGK(Ac)APRK(Ac)QL-K(Biot)-NH2 [H3.1K4acK9acS10pK14acK18ac] | 0.04385 | – | – | – |
| ARTK(Ac)QTARKSTGGKAPRKQL-K(Biot)-NH2 [Peptide H3.1K4ac] | 0.1441 | 0.0285 | – | – |
| ARTKQTAR(Me2s)KSTGGKAPRKQL-Peg-Biot [Peptide H3.1R8me2s] | – | 0.0002677 | – | 0.05819 |
| ARTKQTARK(Ac)pSTGGKAPRKQL-K(Biot)-NH2 [Peptide H3.1K9acS10p] | 0.0481 | – | – | 0.1852 |
| ARTKQTARKSTGG-NleAPRKQL-Peg-Biot [Peptide H3.1K14-Nle] | – | – | 0.0002842 | 0.09623 |
| ARTKQTARKSTGGK(Me2)APRKQL-Peg-Biot [Peptide H3.1K14me2] | – | 0.004075 | 0.003481 | 0.15 |
| ARTKQTARKSTGGK(Me3)APRKQL-Peg-Biot [Peptide H3.1K14me3] | – | – | 0.01888 | 0.148 |
| ARTKQTARKSpTGGKAPRKQL-Peg-Biot [Peptide H3.1T11p] | – | 0.0006879 | 0.0009523 | 0.1657 |
| ARTKQpTARK(Ac)STGGK(Ac)APRK(Ac)QL-K(Biot)-NH2 [H3.1T6pK9acK14acK18ac] | 0.04664 | 0.002409 | 0.004763 | – |
| ARpTK(Me3)QTARK(Ac)STGGK(Ac)APRK(Ac)QL-K(Biot)-NH2 [H3.1T3pK4me3K9acK14acK18ac] | 0.05883 | 0.05484 | 0.007748 | – |
| ARpTK(Me3)QTARKSTGGKAPRKQL-K(Biot)-NH2 [Peptide H3.1T3pK4me3] | 0.0446 | 0.008533 | 9.707e-5 | – |
| ATKAACitKSAPATGGVKKPHRYRPGGG-K(Biotin)-OH [H3.1K27acK36me3] | – | 0.01207 | 0.01344 | 0.0002929 |

| Substance | Avg Signal (53BP1 TTD) | Avg Signal [1] | Avg Signal [2] | Avg Signal [3] |
| --- | --- | --- | --- | --- |
| ATKAARK(Ac)SAPATGGVK(Me2)KPHRYRPG-GK(Biotin)-OH [H3.1K27acK36me2] | – | 0.009849 | 0.003089 | 0.002974 |
| ATKAARK(Ac)SAPATGGVK(Me)KPHRYRPG-GK(Biotin)-OH [H3.1K27acK36me1] | – | 0.01097 | 0.006337 | 0.01424 |
| Ac-AGGK(Ac)AGK(Ac)DSGK(Ac)AKTKAVSR-Peg-Biot [H2A.Z.1K4acK7acK11acN-ac] | – | 0.000221 | 0.0008552 | 4.222e-5 |
| Ac-AGGKAGKDSGKAKTKAVSR-Peg-Biot [H2A.Z.1(1-19)N-ac] | – | – | 0.007006 | 0.002647 |
| Ac-APRK(Ac)QLATK(Ac)AARK(Ac)SAPSTGG-Peg-Biot [H3.3K18acK23acK27ac] | – | 0.0217 | 0.005039 | – |
| Ac-APRKQLATKAARK(Ac)SAPATGG-Peg-Biot [Peptide H3.1K27ac] | – | 0.002581 | 0.003716 | – |
| Ac-APRKQLATKAARK(Ac)SAPSTGG-Peg-Biot [Peptide H3.3K27ac] | – | 0.002855 | – | 0.011 |
| Ac-APRKQLATKAARKpSAPSTGG-Peg-K(Biot)-NH2 [Peptide H3.3S28p] | – | 0.006366 | 0.00807 | 0.002135 |
| Ac-APRKQLATKAARR(Me2a)K(Me)SAPSTGG-Peg-Biot [H3.3R26me2aK27me1] | – | – | 0.002329 | 0.000609 |
| Ac-ARAKAKTRSSRAGLQF-Peg-Biotin [H2A(10-25)] | – | – | 0.005421 | – |
| Ac-IAQDFK(Me)TDLRF-Peg-K(Biot)-NH2 [Peptide H3.1K79me1] | 0.009736 | 0.002481 | – | – |
| Ac-IAQDFKTDLRF-Peg-K(Biot)-NH2 [H3.1.1(74-84)N-ac] | 0.06248 | 0.005943 | – | – |
| Ac-RRYQK(Ac)STELL-Peg-Biot [Peptide H3.1K56ac] | – | – | 0.004595 | – |
| Ac-RRYQK(Me3)STELL-Peg-Biot [Peptide H3.1K56me3] | – | 0.01852 | 0.0004417 | – |
| Ac-SGR(Me2a)GK(Ac)GGKGLGKGGAKRHRKVLR-K(Biot)-NH2 [Peptide H4R3me2aK5ac] | – | 0.0007875 | – | 0.006503 |
| Ac-SGRGK(Ac)GGK(Ac)GLGK(Ac)GGAKRHRKVLR-Peg-Biot [H4K5acK8acK12ac] | 0.2078 | – | 0.002971 | – |
| Ac-SGRGK(Ac)GGK(Ac)GLGK(Me)GGAK(Ac)RHRKVLR-Peg-Biot [H4K5acK8acK12me1K16ac] | – | 0.0008155 | – | 0.02773 |
| Ac-SGRGK(Ac)GGK(Ac)GLGKGGAK(Ac)RHRKVLR-Peg-Biot [H4K5acK8acK16ac] | – | 0.009927 | – | – |
| Ac-SGRGK(Ac)GGK(Ac)GLGKGGAKRHRKVLR-Peg-Biot [Peptide H4K5acK8ac] | – | – | 0.02195 | 0.0004782 |
| Ac-SGRGK(Ac)GGKGLGK(Ac)GGAK(Ac)RHRKVLR-Peg-Biot [H4K5acK12acK16ac] | – | – | 0.0005303 | – |

| Substance | Avg Signal (53BP1 TTD) | Avg Signal [1] | Avg Signal [2] | Avg Signal [3] |
| --- | --- | --- | --- | --- |
| Ac-SGRGK(Ac)GGKGLGKGGAK(Ac)RHRKVLR-Peg-Biot [Peptide H4K5acK16ac] | – | 0.0002957 | 0.0005008 | – |
| Ac-SGRGK(Pro)GGK(Pro)GLGK(Pro)GGAKRHRKVLR-Peg-Biot [H4K5proK8proK12pro] | – | 0.005323 | 0.02856 | – |
| Ac-SGRGKGGK(Ac)GLGK(Ac)GGAK(Ac)RHRKVLR-Peg-Biot [H4K8acK12acK16ac] | – | – | 0.005254 | 0.004192 |
| Ac-SGRGKGGK(Ac)GLGKGGAKRHRK(Ac)VLR-Peg-Biot [Peptide H4K8acK20ac] | – | 0.003203 | 0.001712 | – |
| Ac-SGRGKQGGKARAKAKTR-Peg-Biot [H2A(1-17)] | 0.1243 | – | – | – |
| Ac-TGGKAPR-NleQLATKAAR-Peg-Biot [Peptide H3.1K18-Nle] | – | 0.003627 | 0.005136 | – |
| Ac-pSGRGK(Ac)QGGK(Ac)ARAK(Ac)AK(Ac)TR-Peg-Biot [H2AS1pK5acK9acK13acK15ac] | 0.09024 | – | – | – |
| Ac-pSGRGK(Ac)QGGKARAKAKTR-Peg-Biot [Peptide H2AS1pK5ac] | 0.01536 | 0.009305 | – | – |
| Biot-Peg-GKKATQASQEY-OH [H2A.X(132-142)] | – | – | 0.01738 | 0.00268 |
| H3.1.1(15-34) | – | 0.01508 | – | – |
| IAQDFKTDLRF-Peg-K(Biot)-NH2 [H3.1.1(74-84)] | 0.02 | 0.003353 | – | – |
| IHQNLLPKK-pS-AKATKASQ-Peg-Biot [yH2AS121p] | – | 0.006042 | 0.007624 | – |
| IHQNLLPKKSAKATKASQ-Peg-Biot [yH2A(112-129)] | – | 0.005669 | 0.0006752 | 0.01029 |
| KSAPSTGGVK(Ac)KPHRYKPGT-GG-K(Biot)-NH2 [yH3K36ac] | 0.06747 | – | – | – |
| KSAPSTGGVK(Me2)KPHRYKPGT-GG-K(Biot)-NH2 [yH3K36me2] | 0.8217 | – | – | – |
| KSAPSTGGVKKPHRYKPGT-GG-K(Biot)-NH2 (C-terminal GG-K(biotin) amide) [yH3.1(27-45)] | 0.1127 | – | – | – |
| KSAPSpTGGVKKPHRYRPGT-G-K(Biot)-NH2 [Peptide H3.3T32p] | – | 0.001353 | 0.006003 | 0.0003862 |
| KSAPpSTGGVK(Me3)KPHRYRPGTV-K(biotin)-NH2 [H3.3S31pK36me3] | – | 0.01189 | 0.01017 | – |
| PEPAKSAPAPKK(Ac)GSKKAVTKAQKK-Peg-Biot [Peptide H2BK12ac] | – | 0.0009681 | 0.004181 | – |
| PEPAKSAPAPKKGSKK(Ac)AVTKAQKK-Peg-Biot [Peptide H2BK16ac] | – | 0.01682 | 0.006632 | 0.001252 |

Source: PMC7160673, “A Degenerate Peptide Library Approach to Reveal Sequence Determinants of Methyllysine-Driven Protein Interactions” (Frontiers in Cell and Developmental Biology, 2020)
